Source: US20080200461A1, “MODULATORS OF ACETYL-COENZYME A CARBOXYLASE AND METHODS OF USE THEREOF” (Cropsolution, Inc., priority 2007, published 2008)
Read-outs that look alike come from different tables or passages of the source.

Legend:
Ustilago maydis ACC = Ustilago maydis ACC (Mycosarcoma maydis, UniProt A0A0D1DYD5); experiment: biochemical; assay type: biochemical
Botrytis cinerea = experiment: Fungicidal activity, microtiter plate agar growth assay; assay type: cell-based; details: read-out: In vivo IC50 B. cinerea
Phytophthora infestans = experiment: microbe, parasite or virus in culture; assay type: cell-based; details: read-out: In vivo IC50 P. infestens
Stagonospora nodorum = experiment: Fungicidal activity, microtiter plate agar growth assay; assay type: cell-based; details: Parastagonospora nodorum, read-out: In vivo IC50 S. nodorum
Septoria tritici = experiment: as above; assay type: cell-based; details: Zymoseptoria tritici, read-out: In vivo IC50 S. tritici
hACC1 = biological target: T1, hACC1 (Homo sapiens, UniProt Q13085); experiment: Recombinant human ACC1 activity, [14C]bicarbonate incorporation; assay type: biochemical; details: Table II; read-out: Enzyme Activity IC50 Human ACC1
T1 construct: we cloned full-length cDNAs for both the human isoforms (hACC1 and hACC2); His tag (from pET30a) (C); made in house; host or cells: sf9 insect cells (baculovirus)

hACC2 = biological target: T2, hACC2 (Homo sapiens, UniProt O00763); experiment: Recombinant human ACC2 activity, [14C]bicarbonate incorporation; assay type: biochemical; details: Table II; read-out: Enzyme Activity IC50 Human ACC2
T2 construct: delete amino acids 1-148 and add Met-Gly in front of Lys149 in the final product; His tag (from pET30a) (C); made in house; host or cells: sf9 insect cells (baculovirus)
T2 sequence (O00763 with tags, fused parts or gaps): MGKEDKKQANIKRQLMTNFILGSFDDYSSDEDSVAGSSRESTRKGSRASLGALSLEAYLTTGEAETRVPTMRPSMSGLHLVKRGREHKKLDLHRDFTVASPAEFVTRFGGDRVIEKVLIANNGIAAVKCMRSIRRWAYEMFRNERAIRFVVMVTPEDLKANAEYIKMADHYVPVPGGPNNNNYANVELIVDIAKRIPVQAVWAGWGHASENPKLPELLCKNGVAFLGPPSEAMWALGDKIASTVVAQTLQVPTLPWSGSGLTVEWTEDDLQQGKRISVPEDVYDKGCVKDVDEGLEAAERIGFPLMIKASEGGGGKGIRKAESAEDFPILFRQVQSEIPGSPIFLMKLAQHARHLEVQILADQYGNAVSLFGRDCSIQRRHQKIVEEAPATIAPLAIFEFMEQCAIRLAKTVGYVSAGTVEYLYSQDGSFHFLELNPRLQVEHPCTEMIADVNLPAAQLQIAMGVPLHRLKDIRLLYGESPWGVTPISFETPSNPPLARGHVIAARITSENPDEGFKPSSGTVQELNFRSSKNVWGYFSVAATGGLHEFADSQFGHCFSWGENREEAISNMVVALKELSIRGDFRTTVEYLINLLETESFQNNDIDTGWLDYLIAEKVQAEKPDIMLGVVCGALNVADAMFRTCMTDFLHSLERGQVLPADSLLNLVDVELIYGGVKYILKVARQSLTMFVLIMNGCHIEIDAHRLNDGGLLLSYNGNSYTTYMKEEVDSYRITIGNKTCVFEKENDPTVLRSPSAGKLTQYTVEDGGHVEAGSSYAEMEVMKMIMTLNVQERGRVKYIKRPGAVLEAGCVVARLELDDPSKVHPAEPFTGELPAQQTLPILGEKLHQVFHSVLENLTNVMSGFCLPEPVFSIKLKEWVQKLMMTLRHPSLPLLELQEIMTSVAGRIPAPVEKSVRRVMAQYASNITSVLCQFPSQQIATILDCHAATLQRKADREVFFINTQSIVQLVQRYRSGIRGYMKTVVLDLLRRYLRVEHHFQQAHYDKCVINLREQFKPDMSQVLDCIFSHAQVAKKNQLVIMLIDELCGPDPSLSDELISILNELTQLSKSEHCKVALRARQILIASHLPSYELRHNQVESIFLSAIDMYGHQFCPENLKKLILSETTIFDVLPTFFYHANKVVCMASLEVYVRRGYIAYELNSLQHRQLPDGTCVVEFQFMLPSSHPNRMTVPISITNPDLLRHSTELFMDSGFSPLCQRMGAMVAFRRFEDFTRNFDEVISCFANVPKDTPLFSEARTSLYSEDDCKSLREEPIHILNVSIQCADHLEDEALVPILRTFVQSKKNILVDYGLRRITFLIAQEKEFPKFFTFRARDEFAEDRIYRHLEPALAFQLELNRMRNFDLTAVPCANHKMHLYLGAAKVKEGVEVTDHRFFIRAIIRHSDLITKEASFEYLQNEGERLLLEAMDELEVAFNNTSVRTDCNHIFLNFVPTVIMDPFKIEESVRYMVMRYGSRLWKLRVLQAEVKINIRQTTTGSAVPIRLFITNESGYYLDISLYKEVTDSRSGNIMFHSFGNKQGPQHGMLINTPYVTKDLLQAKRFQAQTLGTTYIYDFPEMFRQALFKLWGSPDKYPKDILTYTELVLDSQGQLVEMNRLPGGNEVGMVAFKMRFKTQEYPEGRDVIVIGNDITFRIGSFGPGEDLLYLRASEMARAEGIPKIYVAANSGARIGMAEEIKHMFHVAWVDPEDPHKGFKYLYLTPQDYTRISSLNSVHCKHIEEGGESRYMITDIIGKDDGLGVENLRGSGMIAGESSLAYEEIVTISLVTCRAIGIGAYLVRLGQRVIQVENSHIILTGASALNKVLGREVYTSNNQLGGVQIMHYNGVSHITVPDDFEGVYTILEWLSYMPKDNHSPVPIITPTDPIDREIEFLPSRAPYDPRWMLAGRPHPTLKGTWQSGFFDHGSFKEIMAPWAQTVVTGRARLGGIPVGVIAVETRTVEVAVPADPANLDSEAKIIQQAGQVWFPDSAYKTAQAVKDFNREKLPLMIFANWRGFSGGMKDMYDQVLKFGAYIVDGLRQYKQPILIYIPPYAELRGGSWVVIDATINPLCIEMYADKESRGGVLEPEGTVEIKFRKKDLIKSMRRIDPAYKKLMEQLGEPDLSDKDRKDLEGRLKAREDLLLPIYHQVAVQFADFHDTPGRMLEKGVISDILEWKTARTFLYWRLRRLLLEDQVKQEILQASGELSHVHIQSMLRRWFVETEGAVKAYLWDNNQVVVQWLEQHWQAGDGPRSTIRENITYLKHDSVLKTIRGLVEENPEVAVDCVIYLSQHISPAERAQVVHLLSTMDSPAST

rat liver ACC [1] = biological target: T3, rat liver ACC (Rattus norvegicus, UniProt P11497); experiment: Rat liver ACC activity, [14C]bicarbonate incorporation; assay type: biochemical
Description: (§1) To test the effect of compounds against mammalian ACC both human and rat enzyme preparations were employed. ACC was purified from rat liver according to published protocols (Rubink and Winder, J Appl Physiol 98, 1221-1227 (2005); Trumble et al., Eur J Biochem 231, 192-198 (1995)). Rat liver contains both ACC1 and ACC2 in a ˜85:15 ratio, respectively (Harwood et al., J Biol Chem 278, 37099-37111 (2003)).

Ustilago maydis K53R ACC = Ustilago maydis K53R ACC (Mycosarcoma maydis, UniProt A0A0D1DYD5, K53R); experiment: biochemical; assay type: biochemical; details: K53R mutation that confers resistance to soraphen
Chain of Ustilago maydis K53R ACC (A0A0D1DYD5 entry or part of it K53R): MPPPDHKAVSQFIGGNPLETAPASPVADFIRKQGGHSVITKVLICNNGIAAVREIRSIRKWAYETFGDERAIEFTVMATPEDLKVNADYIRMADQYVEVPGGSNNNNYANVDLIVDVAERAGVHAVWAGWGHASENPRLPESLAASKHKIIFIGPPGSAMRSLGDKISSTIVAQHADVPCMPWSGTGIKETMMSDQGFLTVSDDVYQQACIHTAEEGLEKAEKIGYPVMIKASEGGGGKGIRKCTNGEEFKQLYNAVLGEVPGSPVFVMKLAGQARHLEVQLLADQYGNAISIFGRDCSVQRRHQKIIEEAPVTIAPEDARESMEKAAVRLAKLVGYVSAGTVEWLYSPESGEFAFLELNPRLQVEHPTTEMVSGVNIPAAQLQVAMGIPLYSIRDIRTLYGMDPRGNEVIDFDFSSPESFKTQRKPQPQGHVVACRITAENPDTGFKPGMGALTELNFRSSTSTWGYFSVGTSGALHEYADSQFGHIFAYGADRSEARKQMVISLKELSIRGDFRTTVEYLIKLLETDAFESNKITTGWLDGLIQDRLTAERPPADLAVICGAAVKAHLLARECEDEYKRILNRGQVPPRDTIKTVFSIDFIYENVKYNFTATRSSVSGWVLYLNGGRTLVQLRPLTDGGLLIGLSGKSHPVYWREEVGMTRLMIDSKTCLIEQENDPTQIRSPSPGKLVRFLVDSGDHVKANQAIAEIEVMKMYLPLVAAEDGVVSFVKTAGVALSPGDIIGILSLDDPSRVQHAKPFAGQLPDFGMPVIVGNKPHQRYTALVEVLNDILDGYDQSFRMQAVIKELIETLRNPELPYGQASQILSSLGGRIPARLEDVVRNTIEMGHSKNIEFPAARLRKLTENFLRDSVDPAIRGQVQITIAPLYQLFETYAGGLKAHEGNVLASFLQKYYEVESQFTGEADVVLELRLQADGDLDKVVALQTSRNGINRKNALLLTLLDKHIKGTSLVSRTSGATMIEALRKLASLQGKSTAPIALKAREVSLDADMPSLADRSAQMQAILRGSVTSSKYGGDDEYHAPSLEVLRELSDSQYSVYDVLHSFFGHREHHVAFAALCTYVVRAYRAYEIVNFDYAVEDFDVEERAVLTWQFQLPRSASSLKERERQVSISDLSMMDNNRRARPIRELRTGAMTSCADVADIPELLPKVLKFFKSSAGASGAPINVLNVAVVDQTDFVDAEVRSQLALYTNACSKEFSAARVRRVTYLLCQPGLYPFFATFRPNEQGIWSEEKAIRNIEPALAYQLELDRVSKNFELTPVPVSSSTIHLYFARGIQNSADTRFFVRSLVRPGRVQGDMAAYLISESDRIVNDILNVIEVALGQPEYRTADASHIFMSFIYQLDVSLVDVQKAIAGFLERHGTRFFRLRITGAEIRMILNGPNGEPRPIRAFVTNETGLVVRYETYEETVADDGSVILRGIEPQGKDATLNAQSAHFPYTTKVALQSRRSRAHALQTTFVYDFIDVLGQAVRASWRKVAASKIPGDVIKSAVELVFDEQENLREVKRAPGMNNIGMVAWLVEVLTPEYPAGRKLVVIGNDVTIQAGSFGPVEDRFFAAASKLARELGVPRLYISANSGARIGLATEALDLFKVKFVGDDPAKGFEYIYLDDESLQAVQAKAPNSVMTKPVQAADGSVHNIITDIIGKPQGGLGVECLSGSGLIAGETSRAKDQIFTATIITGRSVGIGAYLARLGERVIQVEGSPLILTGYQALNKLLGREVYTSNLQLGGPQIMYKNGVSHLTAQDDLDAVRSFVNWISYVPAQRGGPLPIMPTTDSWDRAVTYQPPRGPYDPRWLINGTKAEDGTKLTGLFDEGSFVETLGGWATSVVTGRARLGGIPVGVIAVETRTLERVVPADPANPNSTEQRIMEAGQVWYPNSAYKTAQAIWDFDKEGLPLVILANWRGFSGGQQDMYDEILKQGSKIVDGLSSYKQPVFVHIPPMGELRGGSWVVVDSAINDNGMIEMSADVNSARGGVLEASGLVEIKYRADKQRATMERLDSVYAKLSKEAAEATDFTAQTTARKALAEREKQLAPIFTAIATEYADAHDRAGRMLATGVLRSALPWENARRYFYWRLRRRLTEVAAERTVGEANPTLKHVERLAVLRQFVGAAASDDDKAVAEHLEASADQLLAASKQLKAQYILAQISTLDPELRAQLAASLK

yeast wt BC domain = yeast wt BC domain (Saccharomyces cerevisiae, UniProt Q00955); experiment: Tryptophan fluorescence binding assay; details: for EC50: protein concentration = 200 nM
Chain of yeast wt BC domain (Q00955 58-567): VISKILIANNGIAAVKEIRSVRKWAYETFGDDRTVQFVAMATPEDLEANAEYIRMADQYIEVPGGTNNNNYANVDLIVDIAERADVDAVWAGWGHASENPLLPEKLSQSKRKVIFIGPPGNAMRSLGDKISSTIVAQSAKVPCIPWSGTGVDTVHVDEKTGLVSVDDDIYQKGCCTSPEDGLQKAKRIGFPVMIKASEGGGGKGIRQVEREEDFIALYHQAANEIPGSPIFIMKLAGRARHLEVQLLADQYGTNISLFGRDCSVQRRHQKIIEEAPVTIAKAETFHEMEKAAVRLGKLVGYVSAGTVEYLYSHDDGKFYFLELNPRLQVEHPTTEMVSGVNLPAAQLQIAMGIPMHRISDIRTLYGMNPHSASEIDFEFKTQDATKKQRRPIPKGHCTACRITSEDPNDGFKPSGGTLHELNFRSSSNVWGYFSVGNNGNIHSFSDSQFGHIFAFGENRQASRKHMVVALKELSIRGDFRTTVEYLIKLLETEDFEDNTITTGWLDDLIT
Procedure: The soraphen binding pocket contains a tryptophan residue. Thus, tryptophan fluorescence may be used to directly monitor binding of a ligand to this site. […] We conducted a similar assay in a 96-well format. Briefly, 200 nM protein in 100 mM Tris pH 8 containing 100 mM NaCl and 0.01% Tween 20 (v/v) was incubated in the presence of various amounts of test compounds dissolved in DMSO (1% v/v final concentration). Tryptophan fluorescence at […] was measured in a Pherastar plate reader (BMG Labtech) using 280 nm excitation.

rat liver ACC [2] = biological target: T3, rat liver ACC; experiment: FP saturation binding assay
Description: as §1

[3] = biological target: BC domain of eukaryotic ACCs; details: literature; cited from earlier work
bacterial BC subunits = details: literature; cited from earlier work
yeast BC domain = yeast BC domain (Saccharomyces cerevisiae, UniProt Q00955); details: cited from earlier work
[4] = Table II, enzyme concentration 50 nM, read-out: Enzyme Activity IC50 U. maydis ACC
[5] = fungal growth on agar, 20° C., 3-5 days
[6] = Table I, read-out: In vitro IC50 U. maydis ACC activity
[7] = Table II, enzyme concentration 25 nM, ND = none detected, read-out: Enzyme Activity IC50 Rat liver ACC

`Cc1cc(C)cc(CN(CCCC[N+](C)(C)Cc2cc(C)cc(C)c2)C(=S)Nc2c(F)cccc2F)c1` [Compound 74] showed an IC50 (Ustilago maydis ACC; [4]) of 9 µM.
`Cc1cc(C)cc(CN(CCCC[N+](C)(C)Cc2cc(C)cc(C)c2)Cc2cc(C)cc(C)c2)c1` [Compound 19] gave an IC50 (Botrytis cinerea; [5]) of 7 µM, an IC50 (Phytophthora infestans) of 25 µM and an IC50 (Stagonospora nodorum; [5]) of 64 µM. For the same molecule, the IC50 (Septoria tritici; [5]) was 22 µM and the IC50 (Ustilago maydis ACC; [6]) was 21 µM.
For `CC[N+](CC)(CCCCN(Cc1ccc2ccccc2c1)C(=O)c1sc2c(Cl)c(OC)ccc2c1Cl)Cc1cc(C)cc(C)c1` [Compound 326], the IC50 (Ustilago maydis ACC; [4]) was 0.18 µM, the IC50 (hACC1) was 0.15 µM and the IC50 (hACC2) was 1.5 µM.
Work on `Cc1cc(C)cc(CN(CCC[N+](C)(C)Cc2cc(C)cc(C)c2)Cc2cc(C)cc(C)c2)c1` [Compound 26] yielded an IC50 (Botrytis cinerea; [5]) of 1 µM, an IC50 (Phytophthora infestans) of 23.5 µM and an IC50 (Stagonospora nodorum; [5]) of 5 µM. The IC50 (Septoria tritici; [5]) was 6 µM and the IC50 (Ustilago maydis ACC; [6]) was 39 µM.
In the case of “Diethyl(3,5-dimethylbenzyl)[N-(2-naphthylmethyl)-2-naphthalenesulfonamidobutyl]ammonium bromide [Compound 200]”, the IC50 (Ustilago maydis ACC; [4]) is reported as 0.56 µM, the IC50 (rat liver ACC [1]; [7]) is reported as 11 µM and the IC50 (hACC1) is reported as 7.6 µM. It also gave an IC50 (hACC2) of 22 µM.
For `CC[N+](CC)(CCCCN(Cc1cc(C)cc(C)c1)C(=O)c1ccc2ccccc2c1)Cc1cc(C)cc(C)c1` [Compound 133, Diethyl(3,5-dimethylbenzyl)[N-(3,5-dimethylbenzyl)-2-naphthalenecarboxamidobutyl]ammonium bromide], the IC50 (Ustilago maydis ACC; [4]) was 3 µM.
In the case of `CC[N+](CC)(CCCCN(Cc1ccc2c(c1)OCCO2)S(=O)(=O)c1ccc2ccccc2c1)Cc1cc(C)cc(C)c1.[Br-]` [Compound 184], the “Effect of K53R mutation on inhibition of ACC by compound” value (Ustilago maydis K53R ACC) is reported as “confers resistance to inhibition”.
Molecule `CC[N+](CC)(CCCCN(Cc1ccc2ccccc2c1)S(=O)(=O)c1cccc(Cl)c1Cl)Cc1cc(C)cc(C)c1` [Compound 237] has an IC50 (Ustilago maydis ACC; [4]) of 1.4 µM, an IC50 (hACC1) of 12 µM and an IC50 (hACC2) of 50 µM.
In the case of `Cc1cc(C)cc(CN(CCCC[N+](C)(C)Cc2cc(C)cc(C)c2)S(=O)(=O)c2ccc(Br)cc2)c1` [Compound 61], the IC50 (Ustilago maydis ACC; [4]) is reported as 9 µM.
For `Cc1cc(C)cc(CN(CC[N+](C)(C)Cc2cc(C)cc(C)c2)Cc2cc(C)cc(C)c2)c1` [Compound 25], the IC50 (Botrytis cinerea; [5]) was 1.4 µM, the IC50 (Phytophthora infestans) was 18.2 µM and the IC50 (Stagonospora nodorum; [5]) was 5.8 µM. It also gave an IC50 (Septoria tritici; [5]) of 10 µM and an IC50 (Ustilago maydis ACC; [6]) of 42 µM.
With `CC[N+](CC)(CCCCN(Cc1cc(C)cc(C)c1)Cc1cc(C)cc(C)c1)Cc1cc(C)cc(C)c1.[Br-]` [Compound 28, Diethyl(3,5-dimethylbenzyl)[bis-(3,5-dimethylbenzyl)aminobutyl]ammonium formate] the IC50 (Botrytis cinerea) was 1.8 µM, the IC50 (Phytophthora infestans) was 21.5 µM and the IC50 (Stagonospora nodorum) was 7.2 µM. For the same molecule, the IC50 (Septoria tritici) was 11 µM, the IC50 (Ustilago maydis ACC; Enzyme activity IC50 U. maydis wt ACC) was 11 µM and the IC50 (Ustilago maydis ACC; In vitro IC50 U. maydis ACC activity) was 17 µM. For the same molecule, the “Effect of K53R mutation on inhibition of ACC by compound” value (Ustilago maydis K53R ACC) was “confers resistance to inhibition”, the “Effect on tryptophan fluorescence of yeast BC domain” value (yeast wt BC domain) was “quenched” and the EC50 (yeast wt BC domain) was 11 µM.
In the case of `COc1cc2c(=O)n(CCCC[N+](C)(C)Cc3ccc(Br)cc3)c(=S)n(Cc3ccc(Br)cc3)c2c(OC)c1OC` [Compound 15], the IC50 (Botrytis cinerea; [5]) is reported as 2 µM, the IC50 (Phytophthora infestans) is reported as 18 µM and the IC50 (Stagonospora nodorum; [5]) is reported as 8 µM. It also gave an IC50 (Septoria tritici; [5]) of 4 µM and an IC50 (Ustilago maydis ACC; [6]) of 16 µM.
`CC[N+](CC)(CCCCN(Cc1cc(C)cc(C)c1)S(=O)(=O)c1ccc2ccccc2c1)Cc1cc(C)cc(C)c1` [Compound 85, Diethyl(3,5-dimethylbenzyl)[N-(3,5-dimethylbenzyl)-2-naphthalenesulfonamidobutyl]ammonium bromide] gave an IC50 (Ustilago maydis ACC; [4]) of 15 µM and an IC50 (rat liver ACC [1]; [7]) of 43 µM.
In the case of `CC[N+](CC)(CCCCN(Cc1cc(C)cc(C)c1)C(=O)c1cc(C)cc(C)c1)Cc1cc(C)cc(C)c1` [Compound 76], the IC50 (Ustilago maydis ACC; [4]) is reported as 30 µM.
`C[N+]1(Cc2ccc(Cl)c(Cl)c2)CCN(CCCn2c(SCc3ccc(Cl)c(Cl)c3)nc3ccc(Br)cc3c2=O)CC1` [Compound 7] gave an IC50 (Botrytis cinerea; [5]) of 4.3 µM, an IC50 (Phytophthora infestans) of 200 µM and an IC50 (Stagonospora nodorum; [5]) of 8 µM. It also gave an IC50 (Septoria tritici; [5]) of 4.8 µM and an IC50 (Ustilago maydis ACC; [6]) of 17 µM.
Work on `CC[N+](CC)(CCCCN(Cc1ccc2ccccc2c1)C(=O)c1sc2cccc(Cl)c2c1Cl)Cc1cc(C)cc(C)c1.[Br-]` [Compound 322] yielded an IC50 (Ustilago maydis ACC; [4]) of 0.04 µM, an IC50 (hACC1) of 0.25 µM and an IC50 (hACC2) of 1 µM. The “Effect of K53R mutation on inhibition of ACC by compound” value (Ustilago maydis K53R ACC) was “confers resistance to inhibition”.
`COc1cc2c(=O)n(CCCC[N+](C)(CCC[N+](C)(C)Cc3cc(C)cc(C)c3)Cc3cc(C)cc(C)c3)c(SCc3cc(C)cc(C)c3)nc2c(OC)c1OC` (centres unmarked) [Compound 22] gave an IC50 (Botrytis cinerea; [5]) of 6.7 µM, an IC50 (Phytophthora infestans) of 35 µM and an IC50 (Stagonospora nodorum; [5]) of 4.6 µM. The IC50 (Septoria tritici; [5]) was 4.4 µM and the IC50 (Ustilago maydis ACC; [6]) was 12 µM.
With `CC[N+](CC)(CCCCN(Cc1ccc2ccccc2c1)C(=O)c1cc2cccc(OC)c2cc1OC)Cc1cc(C)cc(C)c1` [Compound 260] the IC50 (Ustilago maydis ACC; [4]) was 1.4 µM, the IC50 (hACC1) was 2.8 µM and the IC50 (hACC2) was 11 µM.
`CO[C@H]1CCCC[C@@H](c2ccccc2)OC(=O)[C@@H](C)[C@@]2(O)O[C@H]([C@@H](C)[C@H](O)[C@H]2OC)[C@@H](C)/C=C/[C@H]1OC` [soraphen A, Soraphen A, reference compound] gave an IC50 (Ustilago maydis ACC; [4]) of 0.017 µM, an IC50 (Ustilago maydis ACC; Table III, enzyme concentration = 50 nM, read-out: Enzyme activity IC50 U. maydis wt ACC) of 0.017 µM and an IC50 (Ustilago maydis ACC; read-out: IC50 inhibition of fungal ACC) of 0.017 µM. It also gave an IC50 (rat liver ACC [1]; tight binding conditions, nominal enzyme concentration 25 nM, read-out: IC50 rat liver ACC activity) of 0.014 µM, an IC50 (hACC1) of 0.011 µM and an IC50 (hACC2) of 0.0027 µM. The EC50 (yeast wt BC domain) was 0.09 µM, the Kd (rat liver ACC [2]) was 0.0032 µM and the Kd [3] was roughly 0.001 µM. The “Effect on bacterial BC subunits” value (bacterial BC subunits) was “no effect” and the Kd (yeast BC domain) was 0.001 µM.
